Patent publication US9828339B2, “Biphenyl derivatives and methods for preparing same” (DONG-A ST CO., LTD, priority 2013, dated 2017)

Legend:
[1] = target: T1, human muscarinic M3 receptor (Homo sapiens (Human), UniProt P20309); assay: Binding assay on human muscarinic M3 receptor ([3H]-methyl scopolamine displacement); conditions: membranes overexpressing human M3 receptor, Ki from IC50 by Cheng-Prusoff, read-out: Binding Affinity to M3 Receptor, Ki
In short: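 Displacement of [3H]-methyl scopolamine from membranes overexpressing human M3, in Tris-HCl, 25 °C, 120 min; filter-bound radioactivity counted. Nonspecific binding with 5 μM atropine; Ki from IC50 via Cheng-Prusoff.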

[2] = target: T1, human muscarinic M3 receptor; assay: Antagonism assay on human muscarinic M3 receptor (carbachol-induced intracellular calcium, FLIPR Calcium 5, transfected Cos-7 cells); assay type: cell-based; conditions: functional inhibitory constant; carbachol-induced intracellular calcium in Cos-7 cells transfected with human M3 receptor
Protocol: [Experimental Example 2] Antagonism Assay on Human Muscarinic M3 Receptor
The antagonism assay for various compounds of the present invention was conducted on antagonism to human M3 receptor in Cos-7 cells that was transfected with plasmid coding human muscarinic M3 receptor. Test compounds in various concentrations were pre-treated to the cells for 3 minutes, and then the changes of intracellular calcium were measured after treating the same with carbachol (i.e. muscarinic receptor agonist). The FLIPR® Calcium 5 assay (Molecular Devices) and Flex3 device (Molecular Devices) were used to measure concentration of calcium. Amounts of calcium before and after carbachol treatment were set as 0% and 100% respectively. Inhibition rates (%) by the compounds for increase in intracellular calcium by carbachol were calculated. The antagonistic potency of the test compounds on human muscarinic M3 receptor was calculated as the functional inhibitory constant (Ki), which can be calculated from concentration (IC50) of compound inhibiting 50% of activity of carbachol according to Cheng and Prusoff equation.

T1 sequence (P20309 whole entry): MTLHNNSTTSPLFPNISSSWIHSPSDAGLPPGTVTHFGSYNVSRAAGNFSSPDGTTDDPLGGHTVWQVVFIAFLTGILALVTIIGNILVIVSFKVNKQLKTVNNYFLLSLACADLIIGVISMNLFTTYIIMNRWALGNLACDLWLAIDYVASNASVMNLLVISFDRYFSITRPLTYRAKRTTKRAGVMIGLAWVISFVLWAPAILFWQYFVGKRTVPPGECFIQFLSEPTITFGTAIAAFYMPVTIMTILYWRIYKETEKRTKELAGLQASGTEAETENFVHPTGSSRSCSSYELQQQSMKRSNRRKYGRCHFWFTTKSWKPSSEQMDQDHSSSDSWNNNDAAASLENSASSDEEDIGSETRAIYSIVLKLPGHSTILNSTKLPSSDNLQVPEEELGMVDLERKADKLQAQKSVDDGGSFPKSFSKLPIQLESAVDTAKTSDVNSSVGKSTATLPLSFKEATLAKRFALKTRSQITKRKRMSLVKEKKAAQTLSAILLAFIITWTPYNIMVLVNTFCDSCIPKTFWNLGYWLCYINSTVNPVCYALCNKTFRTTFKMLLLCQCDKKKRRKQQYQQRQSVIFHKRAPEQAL

SMILES	Ki [1]	Ki [2]
CN1CCCC1CCOC(=O)Nc1ccc(F)cc1-c1ccccc1 (stereo not drawn) [Example 21, 2-(1-methylpyrrolidin-2-yl)ethyl(5-fluoro-[1,1′-biphenyl]-2-yl)carbamate]	0.00225 µM	0.00049 µM
CN1CCCC1CCOC(=O)Nc1ccccc1-c1ccc(F)c(Cl)c1 (stereo not drawn) [Example 41, 2-(1-methylpyrrolidin-2-yl)ethyl(3′-chloro-4′-fluoro-[1,1′-biphenyl]-2-yl)carbamate]	0.00245 µM	0.00018 µM
CN1CCCC1CCOC(=O)Nc1ccc(F)cc1-c1ccc(F)c(F)c1 (stereo not drawn) [Example 42, 2-(1-methylpyrrolidin-2-yl)ethyl(3′,4′,5-trifluoro-[1,1′-biphenyl]-2-yl)carbamate]	0.00921 µM	0.00119 µM
CN1CCCC1CCOC(=O)Nc1ccc(F)cc1-c1cc(Cl)c(F)c(Cl)c1 (stereo not drawn) [Example 56, 2-(1-methylpyrrolidin-2-yl)ethyl(3′,5′-dichloro-4′,5-difluoro-[1,1′-biphenyl]-2-yl)carbamate]	0.0125 µM	0.01 µM
CN1CCCC1CCOC(=O)Nc1ccc(F)cc1-c1ccc(O)c(Cl)c1 (stereo not drawn) [Example 58, 2-(1-methylpyrrolidin-2-yl)ethyl(3′-chloro-5-fluoro-4′-hydroxy-[1,1′-biphenyl]-2-yl)carbamate]	0.0263 µM	0.0047 µM
CN1CCCC1CCOC(=O)Nc1ccc(Cl)cc1-c1cccc(F)c1 (stereo not drawn) [Example 67, 2-(1-Methylpyrrolidin-2-yl)ethyl(5-chloro-3′-fluoro-[1,1′-biphenyl]-2-yl)carbamate]	0.0163 µM	0.0119 µM
CN1CCCC1CCOC(=O)Nc1ccc(Cl)cc1-c1ccc(F)cc1 (stereo not drawn) [Example 68, 2-(1-Methylpyrrolidin-2-yl)ethyl(5-chloro-4′-fluoro-[1,1′-biphenyl]-2-yl)carbamate]	0.0132 µM	0.0132 µM
CN1CCCC1CCOC(=O)Nc1ccc(O)cc1-c1ccc(F)c(Cl)c1 (stereo not drawn) [Example 77, 2-(1-methylpyrrolidin-2-yl)ethyl (3′-chloro-4′-fluoro-5-hydroxy-[1,1′-biphenyl]-2-yl)carbamate]	0.022 µM	0.01 µM
CN1CC[C@@H](COC(=O)Nc2ccccc2-c2ccc(F)cc2)C1 [Example 114, (R)-(1-methylpyrrolidin-3-yl)methyl(4′-fluoro-[1,1′-biphenyl]-2-yl)carbamate]	0.00423 µM	0.00058 µM
CN1CCC[C@H]1COC(=O)Nc1ccc(F)cc1-c1ccc(Cl)cc1Cl [Example 176, (S)-(1-methylpyrrolidin-2-yl)methyl (2′,4′-dichloro-5-fluoro-[1,1′-biphenyl]-2-yl)carbamate]	> 1 µM	
CN1CCC[C@H]1COC(=O)Nc1ccc(F)cc1-c1cccc(C#N)c1 [Example 178, (S)-(1-methylpyrrolidin-2-yl)methyl (3′-cyano-5-fluoro-[1,1′-biphenyl]-2-yl)carbamate]	> 1 µM	
CN1CCC[C@H]1COC(=O)Nc1ccc(F)cc1-c1cccc(O)c1 [Example 179, (S)-(1-methylpyrrolidin-2-yl)methyl(3′-hydroxy-5-fluoro-[1,1′-biphenyl]-2-yl)carbamate]	0.241 µM	
CN1CC[C@@H](COC(=O)Nc2cc(F)c(F)cc2-c2cccc(Cl)c2)C1 [Example 182, (R)-(1-methylpyrrolidin-3-yl)methyl (3′-chloro-4,5-difluoro-[1,1′-biphenyl]-2-yl)carbamate]	> 1 µM	
CN1CCCC1CCOC(=O)Nc1ccccc1-c1cccc(F)c1F (stereo not drawn) [Example 184, 2-(1-Methylpyrrolidin-2-yl)ethyl(2′,3′-difluoro-[1,1′-biphenyl]-2-yl)carbamate]	0.0635 µM	
CN1CCCC1CCOC(=O)Nc1ccccc1-c1c(F)cccc1F (stereo not drawn) [Example 185, 2-(1-Methylpyrrolidin-2-yl)ethyl(2′,6′-difluoro-[1,1′-biphenyl]-2-yl)carbamate]	0.0461 µM	
CN1CCC[C@H]1COC(=O)Nc1ccccc1-c1cccc(F)c1F [Example 189, (S)-(1-methylpyrrolidin-2-yl)methyl(2′,3′-difluoro-[1,1′-biphenyl]-2-yl)carbamate]	0.0656 µM	
Cc1cc(C)cc(-c2ccccc2NC(=O)OC[C@@H]2CCN(C)C2)c1 [Example 191, (R)-(1-methylpyrrolidin-3-yl)-methyl (3′,5′-dimethyl-[1,1′-biphenyl]-2-yl)carbamate]	0.0308 µM	
Cc1cc(C)cc(-c2cc(F)ccc2NC(=O)OC[C@@H]2CCN(C)C2)c1 [Example 193, (R)-(1-methylpyrrolidin-3-yl)methyl(5-fluoro-3′,5′-dimethyl-[1,1′-biphenyl]-2-yl)carbamate]	0.0458 µM	

SMILES	Ki [1]	Ki [2]
CN1CCC[C@H]1COC(=O)Nc1ccc(F)cc1-c1ccccc1 [Example 200, (S)-(1-methylpyrrolidin-2-yl)methyl(5-fluoro-[1,1′-biphenyl]-2-yl)carbamate]	0.00203 µM	
Cc1ccc(NC(=O)OC[C@@H]2CCCN2C)c(-c2ccccc2)c1 [Example 206, (S)-(1-methylpyrrolidin-2-yl)methyl(5-methyl-[1,1′-biphenyl]-2-yl)carbamate]	0.00732 µM	
Cc1cc(C)cc(-c2cc(F)ccc2NC(=O)OC[C@@H]2CCCN2C)c1 [Example 208, (S)-(1-methylpyrrolidin-2-yl)-methyl(5-fluoro-3′,5′-dimethyl-[1,1′-biphenyl]-2-yl)-carbamate]	0.11 µM	
CN1CCC[C@H]1COC(=O)Nc1ccc(F)cc1-c1ccc(C(C)(C)C)cc1 [Example 209, (S)-(1-methylpyrrolidin-2-yl)methyl (4′-(tert-butyl)-5-fluoro-[1,1′-biphenyl]-2-yl)carbamate]	> 1 µM	
CN1CCC[C@H]1COC(=O)Nc1ccc(F)cc1-c1cc(F)cc(Cl)c1 [Example 210, (S)-(1-methylpyrrolidin-2-yl)methyl(3′-chloro-5,5′-difluoro-[1,1′-biphenyl]-2-yl)carbamate]	0.0046 µM	
CN1CCC[C@H]1COC(=O)Nc1ccc(F)cc1-c1ccc(Cl)c(F)c1 [Example 212, (S)-(1-methylpyrrolidin-2-yl)methyl(4′-chloro-3′,5-difluoro-[1,1′-biphenyl]-2-yl)carbamate]	> 1 µM	
CN1CCC[C@H]1COC(=O)Nc1ccc(F)cc1-c1cccc(N)c1 [Example 213, (S)-(1-methylpyrrolidin-2-yl)methyl (3′-amino-5-fluoro-[1,1′-biphenyl]-2-yl)carbamate]	0.053 µM	
CN1CCC[C@H]1COC(=O)Nc1ccc(F)cc1-c1cccc(C(F)(F)F)c1F [Example 214, (S)-(1-methylpyrrolidin-2-yl)methyl(2′,5-difluoro-3′-(trifluoromethyl)-[1,1′-biphenyl]-2-yl)carbamate]	> 1 µM	
CN1CCC[C@H]1COC(=O)Nc1ccc(F)cc1-c1cc(Cl)cc(C(F)(F)F)c1 [Example 215, (S)-(1-methylpyrrolidin-2-yl)methyl(3′-chloro-5-fluoro-5′-(trifluoromethyl)-[1,1′-biphenyl]-2-yl)carbamate]	> 1 µM	
CN1CCC[C@H]1COC(=O)Nc1ccc(F)cc1-c1cc(O)cc(Cl)c1 [Example 216, (S)-(1-methylpyrrolidin-2-yl)methyl(3′-chloro-5-fluoro-5′-hydroxy-[1,1′-biphenyl]-2-yl)carbamate]	0.0601 µM	
COc1cc(Cl)cc(-c2cc(F)ccc2NC(=O)OC[C@@H]2CCCN2C)c1 [Example 217, (S)-(1-methylpyrrolidin-2-yl)methyl (3′-chloro-5-fluoro-5′-methoxy-[1,1′-biphenyl]-2-yl)carbamate]	0.223 µM	
CN1CCC[C@H]1COC(=O)Nc1ccc(F)cc1-c1ccc(C(F)(F)F)cc1C(F)(F)F [Example 218, (S)-(1-methylpyrrolidin-2-yl)methyl(5-fluoro-2′,4′-bis(trifluoromethyl)-[1,1′-biphenyl]-2-yl)carbamate]	> 1 µM	
CCOc1cccc(-c2cc(F)ccc2NC(=O)OC[C@@H]2CCCN2C)c1 [Example 219, (S)-(1-methylpyrrolidin-2-yl)methyl(3′-ethoxy-5-fluoro-[1,1′-biphenyl]-2-yl)carbamate]	> 1 µM	
COc1ccc(-c2cc(F)ccc2NC(=O)OC[C@@H]2CCCN2C)cc1OC [Example 220, (S)-(1-methylpyrrolidin-2-yl)methyl (5-fluoro-3′,4′-dimethoxy-[1,1′-biphenyl]-2-yl)carbamate]	> 1 µM	
COc1cc(OC)cc(-c2cc(F)ccc2NC(=O)OC[C@@H]2CCCN2C)c1 [Example 221, (S)-(1-methylpyrrolidin-2-yl)methyl(5-fluoro-3′,5′-dimethoxy-[1,1′-biphenyl]-2-yl)carbamate]	> 1 µM	
COc1ccc(NC(=O)OC[C@@H]2CCCN2C)c(-c2ccccc2)c1 [Example 222, (S)-(1-methylpyrrolidin-2-yl)methyl(5-methoxy-[1,1′-biphenyl]-2-yl)carbamate]	0.0283 µM	
COc1ccc(NC(=O)OC[C@@H]2CCCN2C)c(-c2cccc(F)c2)c1 [Example 223, (S)-(1-methylpyrrolidin-2-yl)methyl(3′-fluoro-5-methoxy-[1,1′-biphenyl]-2-yl)carbamate]	0.121 µM	
COc1ccc(NC(=O)OC[C@@H]2CCCN2C)c(-c2ccc(Cl)c(Cl)c2)c1 [Example 225, (S)-(1-methylpyrrolidin-2-yl)methyl (3′,4′-dichloro-5-methoxy-[1,1′-biphenyl]-2-yl)carbamate]	0.0536 µM	
